Among the data in PubChem BioAssay AID743396 (Broad Institute, 2014) are % fluorescent cells increase values, retold here.

The source made the active and inactive calls.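 How the source made its calls: active means fitted curve reaches a 40% rise in fluorescent cells at or below the top valid dose; inactive means opposite-direction effect, or the rest.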

The first assay is described as follows: autofluorescent compounds in non-GFP fibroblasts, dose response, artefact control for X-chromosome reactivation project, imaging, mTEFS fibroblasts, cherry-pick (AID 743396).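 Further: raw share of Hoechst-counted cells scored GFP positive without control normalization.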 The settings on record: mTEFS fibroblasts autofluorescence, GFP-channel imaging, 3 days; at 19.5 µM (top of the series).
Take `O=C(Cc1ccccn1)N1CCCCN2[C@H](C1)[C@@H](c1ccc(-c3ccccc3F)cc1)[C@@H]2CO`: the % fluorescent cells increase was 0.674% (inactive).

Staying with this assay, now noted: mTEFS fibroblasts autofluorescence, GFP-channel imaging, 3 days; at 19.5 µM (top of the series); cells pretreated with 5-aza-dC.
Turning to `N#CC(C#N)=C1C=CC=CN1/C(=C\c1ccco1)C(=O)c1ccc(Br)cc1`, the % fluorescent cells increase was 0% (inactive).
Regarding `COc1ccc(N=Nc2ccc(O)c(P(=O)(c3ccccc3)c3ccccc3)c2)cc1`, the % fluorescent cells increase is 0% (inactive).
Same read-out and setting: next, `CC(C)C#Cc1ccc([C@@H]2[C@@H](CO)N3C(=O)CN(C(=O)c4ccc5c(c4)OCO5)C[C@H]23)cc1`: -0.166% (inactive); `COc1ccccc1CNC(=O)COC(=O)COc1ccccc1F`: 1.84% (inactive).
For the compound `Nc1c(C(=O)O)cnn1-c1ccc([N+](=O)[O-])cc1`, the % fluorescent cells increase was 0.002% (inactive).
The same measure, in the same setting: next, `Nc1ccc(-c2nc3ccccc3[nH]2)cc1`: 0% (inactive); `COc1ccc(CN(C)C[C@H]2OCCCC[C@H](C)Oc3ccc(NC(=O)Nc4ccc(F)cc4)cc3C(=O)N([C@H](C)CO)C[C@H]2C)cc1`: 0.183% (inactive).
With `C/C(=N\NC(=O)CC1N=C(Cc2ccccc2)NNC1=O)c1ccc(Br)cc1` (stereo not drawn), the % fluorescent cells increase was 0.037% (inactive).
In the case of `CCN(CC)CCCN=Cc1c(O)n(-c2cccc(C)c2)c(=O)c2ccccc12`, the % fluorescent cells increase was -0.011% (inactive).
Take `C=CCNC(=O)N[C@@H](Cc1ccccc1)C(=O)OC`: the % fluorescent cells increase is 1.04% (inactive).
Take `COc1ccc2c3c(n(C)c2c1)[C@@H](CO)N(Cc1ccccc1OC)CC31CCN(C)CC1`: the % fluorescent cells increase is -0.158% (inactive).
Take `CCOC(=O)c1c(C)[nH]c(N=Nc2ccc(OC)cc2)c1C`: the % fluorescent cells increase was 0.028% (inactive).
Still for that read-out and setting: next, `COc1ccc(-c2nnc(NC(=O)c3ccc(F)cc3)o2)cc1`: 0% (inactive).
In the case of `O=C(c1ccc(S(=O)(=O)c2ccc(Cl)cc2)cc1)N1CCOCC1`, the % fluorescent cells increase is 0.948% (inactive).
Regarding `Cc1ccc(-c2ccc3c(c2)O[C@@H](CN(C)Cc2ccncc2)[C@@H](C)CN([C@@H](C)CO)S3(=O)=O)cc1`, the % fluorescent cells increase is 0.037% (inactive).
Regarding `Cc1cccc(-c2ccc([C@@H]3[C@@H](CO)N4CCCCN(S(=O)(=O)c5ccccc5F)C[C@H]34)cc2)c1`, the % fluorescent cells increase was 8.13% (inactive).
For the compound `C[C@@H]1CN([C@@H](C)CO)C(=O)c2cc(NS(C)(=O)=O)ccc2O[C@@H](C)CCCCO[C@@H]1CN(C)Cc1ccccc1`, the % fluorescent cells increase is 0.259% (inactive).
For the compound `Cc1ccccc1NC(=O)c1c(C)[nH]c(=S)c(C#N)c1-c1ccc(Cl)cc1`, the % fluorescent cells increase is 0.031% (inactive).
In the case of `CCCN(C(=O)c1ccc(-n2cncn2)c([N+](=O)[O-])c1)C1CCS(=O)(=O)C1` (stereo not drawn), the % fluorescent cells increase is 0.034% (inactive).
As for `Cc1ccc(-c2nc(CS(=O)CC(=O)NCCCN3CC(C)CC(C)C3)c(C)o2)cc1` (stereo not drawn), the % fluorescent cells increase is 0.023% (inactive).
As for `Nc1ccccc1Nc1cc(-c2ccccc2)[nH]n1`, the % fluorescent cells increase is 2.52% (inactive).
Consider `CC(=O)Oc1ccc2c(=O)c(-c3ccccc3)coc2c1`, for which the % fluorescent cells increase was 0.02% (inactive).
Consider `COc1cccc2cc(C(=O)N(Cc3cccs3)CC3CCCO3)c(=O)oc12` (stereo not drawn), for which the % fluorescent cells increase is 0.013% (inactive).
In the case of `CC(=O)N(C)C[C@@H]1Oc2ncc(-c3cccnc3)cc2C(=O)N([C@@H](C)CO)C[C@@H]1C`, the % fluorescent cells increase was 0.097% (inactive).
On to `CC1CC(C)CN(C(=O)CSCC(=O)Nc2nc(-c3cccs3)cs2)C1` (stereo not drawn), for which the % fluorescent cells increase is 0% (inactive).
Still for that read-out and setting: next, `CC[N+]1=C(C)C(C)(C)c2cc(C)ccc21`: 0.089% (inactive); `c1ccc(CCNc2nc(-c3ccccn3)nc3ccccc23)cc1`: 0% (inactive); `Nc1[nH]c(=O)nc(Nc2ccccc2)c1N=O`: 0% (inactive).
On the same count and under the same terms, next, `C[C@H]1CN([C@@H](C)CO)C(=O)c2cc(NC(=O)CCCCCC(=O)Nc3ccccc3N)ccc2O[C@H]1CN(C)C(=O)Nc1ccccc1`: 0.017% (inactive); `CN1CCN(S(=O)(=O)c2ccc(C#N)cc2)C(c2ccccc2)C1` (stereo not drawn): 0% (inactive).
Regarding `Cc1ccc(C(=O)Cn2cncn2)cc1`, the % fluorescent cells increase is -0.006% (inactive).
Still for that read-out and setting: next, `COc1ccc(-c2ccc(C(=O)NCc3cccs3)c3occc23)c(C)c1`: 0.07% (inactive); `C[C@@H]1CN([C@@H](C)CO)C(=O)c2cc(NS(=O)(=O)c3cn(C)cn3)ccc2O[C@@H](C)CCCCO[C@H]1CN(C)C(=O)c1ccccc1`: 0% (inactive); `O=C(N/N=C/c1ccc2cccnc2c1)c1nc2ccccc2c(=O)[nH]1`: 0.022% (inactive).
For the compound `CC=Cc1ccc2n(c1=O)C[C@@H]1[C@@H](CO)[C@H](C(=O)NCCCN(C)C)[C@H]2N1C(=O)c1ccccc1F` (mixture of isomers), the % fluorescent cells increase is 0.025% (inactive).
The same measure, in the same setting: next, `O=C(NC1=C(NC2CCS(=O)(=O)C2)C(=O)c2ccccc2C1=O)c1ccccc1` (stereo not drawn): 0% (inactive).
In the case of `Cc1ccc(S(=O)(=O)N2CC3(O)CN(C(=O)OC(C)C)N(C(=O)OC(C)C)CC3(OC(=O)NCc3ccccc3)C2)cc1` (stereo not drawn), the % fluorescent cells increase is 0.003% (inactive).
Same read-out and setting: then `Cc1ncsc1C(=O)Nc1cccc(C(F)(F)F)c1`, with 0.019% (inactive).
For the compound `O=C(NCCOc1ccccc1)c1cc([N+](=O)[O-])ccc1N1CCOCC1`, the % fluorescent cells increase was 0.343% (inactive).
The same measure, in the same setting: then `O=C(Nc1ccccc1N1CCCCC1)c1cnccn1`, with 0.039% (inactive); and `COc1cc(/C=C/c2ccc3cccc(O)c3n2)ccc1O`, with 0% (inactive).
For the compound `Cc1cccn2c(=O)c3cc(C(=O)NCc4ccc(F)cc4)c(=N)n(CCCN4CCOCC4)c3nc12`, the % fluorescent cells increase was 0% (inactive).
For the compound `Cc1cc(-c2nc(C)c(-c3nnc(SCC(=O)Nc4ccc(Cl)cc4)n3C)s2)no1`, the % fluorescent cells increase is 0% (inactive).
For `CCC(C)c1nc2ccsc2c(N2CCOC2=O)c1-c1ccccc1` (stereo not drawn), the % fluorescent cells increase is -0.011% (inactive).
Still for that read-out and setting: next, `Oc1ccc(Cl)cc1C=Nc1ccc2c3c(cccc13)CC2`: 0.216% (inactive); `Cn1cc(/C=C/c2cc[n+](C)cc2)c2cc(Cl)ccc21`: 6.85% (inactive); `C[C@H](CO)N1C[C@H](C)[C@H](CN(C)S(=O)(=O)c2ccccc2)Oc2ccc(NS(=O)(=O)c3ccc(Cl)cc3)cc2C1=O`: 0.016% (inactive).
In the case of `CC1=C(Cl)C2=NS(=O)(=O)CCN2C=C1Cl`, the % fluorescent cells increase was 1.51% (inactive).
Regarding `Cc1ccc(N2C(=O)C3C4C=CC(CNC(=S)N5CCN(c6ccccc6)CC5)(O4)C3C2=O)cc1` (stereo not drawn), the % fluorescent cells increase is 1.71% (inactive).
Regarding `COc1ccccc1OCCOc1ccc(/C=C2\C(=N)N3N=C(S(C)(=O)=O)SC3=NC2=O)cc1`, the % fluorescent cells increase is 0% (inactive).
Take `Cc1ccc(NCc2nnc(SCC(=O)NNC(=O)Cc3ccccc3)n2C)cc1`: the % fluorescent cells increase is 0.009% (inactive).
`C=CCn1c(=S)[nH]c2scc(-c3ccco3)c2c1=O`: the % fluorescent cells increase is 0% (inactive).
For `COC(=O)c1cc(NS(=O)(=O)c2ccc(NC(C)=O)cc2)ccc1Cl`, the % fluorescent cells increase was 0% (inactive).
Turning to `COc1ccc(CCn2c(C)cc(C(=O)CN3C(=O)C(=O)N(Cc4ccco4)C3=O)c2C)cc1`, the % fluorescent cells increase was 0% (inactive).
As to `CC(C)(C=O)C1=CC(=O)c2ccccc2C1=O`, the % fluorescent cells increase is 0% (inactive).
For the compound `CC(C)NC(=O)N(C)C[C@@H]1OCCCC[C@H](C)Oc2ccc(NC(=O)Nc3ccc(C(F)(F)F)cc3)cc2C(=O)N([C@H](C)CO)C[C@@H]1C`, the % fluorescent cells increase is 0% (inactive).
Same read-out and setting: then `CO[C@H]1CN(C)C(=O)c2ccc(NC(=O)Cc3ccccc3)cc2OC[C@@H](C)N(C)C[C@H]1C`, with 0% (inactive).
Turning to `C=CCN(CC(O)c1cccc([N+](=O)[O-])c1)C(C)CCc1ccccc1` (stereo not drawn), the % fluorescent cells increase is 1.4% (inactive).
As to `CCOC(=O)c1sc2nc(CSc3ccccc3)[nH]c(=O)c2c1C`, the % fluorescent cells increase was 0.048% (inactive).
For `CSc1ccc(CN2C(=O)NC3(CCCCCCC3)C2=O)cc1`, the % fluorescent cells increase was -0.004% (inactive).
Turning to `COc1ccc(-c2ccc(C3[C@@H]4CN(S(=O)(=O)c5ccccc5C)C[C@H]3N4)cc2)cc1` (stereo partly drawn), the % fluorescent cells increase was 0% (inactive).
The same measure, in the same setting: next, `NC(=S)Nc1ccc(Cl)cc1Cl`: 0.009% (inactive); `CCc1nc(C)cn1S(=O)(=O)c1ccc([N+](=O)[O-])cc1`: 0.011% (inactive); `CN(C)C=NC(=O)c1cc(C(=O)c2ccc(Cl)cc2Cl)c[nH]1`: 0.032% (inactive).
As to `COc1ccc(N2CCN(C(CNC(=O)c3ccc4c(c3)OCO4)c3ccco3)CC2)cc1` (stereo not drawn), the % fluorescent cells increase was 0% (inactive).
As to `CCOC(=O)N1CCN(Cc2cc(Cl)c3cccnc3c2O)CC1`, the % fluorescent cells increase was 0% (inactive).
`CCc1ccccc1OCC(=O)Nc1ccc(N2CCCC2)cc1C`: the % fluorescent cells increase is 0.096% (inactive).
Consider `COc1cc(/C=C/C(=O)c2ccc([N+](=O)[O-])o2)ccc1O`, for which the % fluorescent cells increase was 5.15% (inactive).
Take `COc1ccc(OCCN2CCC(C(=O)NC(c3ccc(C)cc3)c3ccccn3)CC2)cc1` (stereo not drawn): the % fluorescent cells increase is 0.021% (inactive).
Regarding `COc1ccc2c3c([nH]c2c1)[C@H](CO)N(C(=O)C1CCCC1)CC31CN(Cc2nccs2)C1`, the % fluorescent cells increase was 0.113% (inactive).

Staying with this assay, now noted: mTEFS fibroblasts autofluorescence, GFP-channel imaging, 3 days; at 21 µM (top of the series); cells pretreated with 5-aza-dC.
In the case of `CO[C@H](CN(C)C(=O)Nc1ccc(C(F)(F)F)cc1)[C@@H](C)CN(Cc1ccccc1Cl)[C@@H](C)CO`, the % fluorescent cells increase is 0% (inactive).
`Cc1cccc(CN(C)C[C@@H]2Oc3ncc(C#Cc4ccccc4)cc3C(=O)N([C@H](C)CO)C[C@@H]2C)c1`: the % fluorescent cells increase was 0% (inactive).
